Inhibition data for 18 compounds are collected here from patent US8492559B2, “Substituted indole compounds” (Gruenenthal GmbH, priority 2009, dated 2013).

The target in this assay is T1, human B1R receptor (hB1R) (Homo sapiens, UniProt P46663).
T1 construct: expressed in transfected cells; host or cells: CHO K1 cells
T1 sequence (P46663 1-353): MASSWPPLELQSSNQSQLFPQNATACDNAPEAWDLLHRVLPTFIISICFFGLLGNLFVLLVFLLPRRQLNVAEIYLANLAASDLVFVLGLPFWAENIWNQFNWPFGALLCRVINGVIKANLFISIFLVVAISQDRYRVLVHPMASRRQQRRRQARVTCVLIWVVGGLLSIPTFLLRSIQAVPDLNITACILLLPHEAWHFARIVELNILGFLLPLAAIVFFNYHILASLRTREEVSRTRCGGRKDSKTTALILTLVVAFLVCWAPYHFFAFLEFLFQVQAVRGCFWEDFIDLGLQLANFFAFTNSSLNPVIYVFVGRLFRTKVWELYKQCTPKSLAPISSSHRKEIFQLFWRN
Description: Functional investigation on the bradykinin 1 receptor (B1R), FLIPR Ca2+ assay, hB1R cells. It is filed as cell-based. The note with it: CHO-K1, 10 μM test substance; CHO K1 cells with human B1R; agonist Lys-Des-Arg9 bradykinin; % of maximum achievable inhibition; read-out: B1R antagonism, human [10 μM] % inhibition. The procedure: The agonistic or antagonistic action of substances can be quantified on the bradykinin 1 receptor (B1R) of the human and rat species with ectopically expressing cell lines (CHO K1 cells) and with the aid of a Ca^2+-sensitive dye (Fluo-4) using a fluorescent imaging plate reader (FLIPR). The indication in % activation is based on the Ca^2+ signal after addition of Lys-Des-Arg^9 bradykinin (0.5 nM) or Des-Arg^9 bradykinin (100 nM). Antagonists lead to a suppression of the Ca^2+ influx following administration of the agonist. The % inhibition in comparison with the maximum achievable inhibition is indicated.
1. Functional Investigation on the Bradykinin 1 Receptor (B1R)
The agonistic or antagonistic action of substances can be determined on the bradykinin 1 receptor (B1R) of the human and rat species with the following assay. According to this assay, the Ca^2+ inflow through the channel is quantified with the aid of a Ca^2+-sensitive dye (Fluo-4 type, Molecular Probes Europe BV, Leiden, Netherlands) in a fluorescent imaging plate reader (FLIPR, Molecular Devices, Sunnyvale, USA).
Chinese hamster ovary cells (CHO K1 cells) which are stably transfected with the human B1R gene (hB1R cells) or the B1R gene of the rat (rB1R cells) are used. For functional investigations these cells are plated-out onto black 96-well plates with a clear base (BD Biosciences, Heidelberg, Germany or Greiner, Frickenhausen, Germany) in a density of 20,000-35,000 cells/well. Overnight the cells are incubated at 37° C. and 5% CO2 in culture medium (hB1R cells: Ham's Nutrient Mixture F12, Gibco Invitrogen GmbH, Karlsruhe, Germany or DMEM, Sigma-Aldrich, Taufkirchen, Germany; rB1R cells: D-MEM/F12, Gibco Invitrogen, Karlsruhe, Germany) with 10 vol. % FBS (foetal bovine serum, Gibco Invitrogen GmbH, Karlsruhe, Germany or PAN Biotech GmbH, Aidenbach, Germany).
On the following day the cells are loaded with 2.13 μM Fluo-4 (Molecular Probes Europe BV, Leiden, Netherlands) in HBSS buffer (Hank's buffered saline solution, Gibco Invitrogen GmbH, Karlsruhe, Germany) with 2.5 mM probenecid (Sigma-Aldrich, Taufkirchen, Germany) and 10 mM HEPES (Sigma-Aldrich, Taufkirchen, Germany) for 60 min at 37° C. The plates are subsequently washed twice with HBSS buffer, and HBSS buffer which additionally contains 0.1% BSA (bovine serum albumin; Sigma-Aldrich, Taufkirchen, Germany), 5.6 mM glucose and 0.05% gelatine (Merck KGaA, Darmstadt, Germany) is added. After a further incubation of 20 minutes at room temperature, the plates are inserted into the FLIPR for Ca^2+ measurement.
Alternatively they are washed with buffer A (15 mM HEPES, 80 mM NaCl, 5 mM KCl, 1.2 mM CaCl2, 0.7 mM MgSO4, 2 g/l glucose, 2.5 mM probenecid) and loaded with buffer A with added 2.5 μM Fluo-4 and 0.025% Pluronic F127 (Sigma-Aldrich, Taufkirchen, Germany). The cells are then washed twice with buffer A and incubated for 30 minutes with buffer A, which additionally contains 0.05% BSA and 0.05% gelatine, at room temperature and then used for Ca^2+ measurement in the FLIPR. The Ca^2+-dependent fluorescence is measured here before and after addition of substances (λex=488 nm, λem=540 nm). The quantification is performed by measuring the highest fluorescence intensity (FC, fluorescence counts) over time.
The FLIPR protocol comprises two additions of substance. Test substances (10 μM) are first pipetted onto the cells and the Ca^2+ inflow is compared with the control (hB1R: Lys-Des-Arg^9 bradykinin>=50 nM; rB1R: Des-Arg^9 bradykinin 10 μM). The value in % activation based on the Ca^2+ signal after addition of Lys-Des-Arg^9 bradykinin (>=50 nM) or Des-Arg^9 bradykinin (10 μM) is obtained therefrom. After incubation for 10-20 minutes, Lys-Des-Arg^9 bradykinin (hB1R) or Des-Arg^9 bradykinin (rB1R) is applied in the EC80 concentration and the inflow of Ca^2+ is likewise determined.
Antagonists lead to a suppression of the Ca^2+ inflow. The % inhibition in comparison with the maximum achievable inhibition is calculated. […]

A word on the inhibition: it is the percentage by which the read-out fell short of the control.

As to `COc1cc(C)c(S(=O)(=O)Nc2cccc3ccn(CCC(=O)N4CCC5(CC4)CCN(c4ccncc4)CC5)c23)c(C)c1` [G_CC-54, 4-Methoxy-2,6-dimethyl-N-[1-[3-oxo-3-(3-pyridin-4-yl-3,9-diazaspiro[5.5]undecan-9-yl)-propyl]-1H-indol-7-yl]-benzenesulfonic acid amide], the inhibition at 10 µM was 99%.
The same measure for `COc1cc(C)c(S(=O)(=O)Nc2cccc3ccn(CC(=O)N4CCC5(CCC(Oc6ccncc6)CC5)CC4)c23)c(C)c1` [Compound G-22, 4-Methoxy-2,6-dimethyl-N-(1-(2-oxo-2-(9-(pyridin-4-yloxy)-3-azaspiro[5.5]undecan-3-yl)ethyl)-1H-indol-7-yl)benzenesulfonic acid amide]: 100%; for `Cc1cc(S(=O)(=O)Nc2cccc3ccn(CCC(=O)N4CCN(CC5CCN(C)CC5)CC4)c23)c(C)cc1Cl` [G_CC-62, 4-Chloro-2,5-dimethyl-N-[1-[3-[4-[(1-methyl-piperidin-4-yl)-methyl]-piperazin-1-yl]-3-oxo-propyl]-1H-indol-7-yl]-benzenesulfonic acid amide]: 94%; for `COc1cc(C)c(S(=O)(=O)NCc2cccc3ccn(CC(=O)N4CCC5(CC4)CCN(c4ccncc4)CC5)c23)c(C)c1` [Compound G-24, 4-Methoxy-2,6-dimethyl-N-[[1-[2-oxo-2-(9-pyridin-4-yl-3,9-diazaspiro[5.5]undecan-3-yl)-ethyl]-1H-indol-7-yl]-methyl]-benzenesulfonic acid amide]: 98%.
For `COc1cc(C)c(S(=O)(=O)Nc2cccc3ccn(CC(=O)N4CCC5(CC4)CCN(Cc4ccccc4)C5=O)c23)c(C)c1` [G_CC-32, N-[1-[2-(3-Benzyl-4-oxo-3,8-diazaspiro[4.5]decan-8-yl)-2-oxo-ethyl]-1H-indol-7-yl]-4-methoxy-2,6-dimethyl-benzenesulfonic acid amide] the value was 73%; for `COc1cc(C)c(S(=O)(=O)Nc2cccc3ccn(CC(=O)N4CCC(OCCN5CCCC5)(c5cccnc5)CC4)c23)c(C)c1` [Compound G-06, 4-Methoxy-2,6-dimethyl-N-[1-[2-oxo-2-[4-pyridin-3-yl-4-(2-pyrrolidin-1-yl-ethoxy)-piperidin-1-yl]-ethyl]-1H-indol-7-yl]-benzenesulfonic acid amide], 83%.
The same measure for `Cc1cc(S(=O)(=O)Nc2ccc3ccn(CC(=O)N4CCN(CC5CCN(C)CC5)CC4)c3c2)c(C)cc1Cl` [G_CC-8, 4-Chloro-2,5-dimethyl-N-[1-[2-[4-[(1-methyl-piperidin-4-yl)-methyl]-piperazin-1-yl]-2-oxo-ethyl]-1H-indol-6-yl]-benzenesulfonic acid amide]: 26%; for `O=C(Cn1ccc2ccc(N3Cc4cccc(Cl)c4C3=O)cc21)N1CCC2(CCN(c3ccncc3)CC2)C1` [Compound G-12, 7-Chloro-2-(1-(2-oxo-2-(8-(pyridin-4-yl)-2,8-diazaspiro[4.5]decan-2-yl)ethyl)-1H-indol-6-yl)isoindolin-1-one]: 98%.
With `COc1cc(C)c(S(=O)(=O)Nc2ccc3ccn(CC(=O)N(C)CCCN4CCN(c5ccncc5)CC4)c3c2)c(C)c1` [G_CC-76, 2-[6-[[(4-Methoxy-2,6-dimethyl-phenyl)sulfonyl]amino]-1H-indol-1-yl]-N-methyl-N-[3-(4-pyridin-4-yl-piperazin-1-yl)-propyl]-acetamide], the inhibition at 10 µM came out at 92%.
The same measure for `O=C(Cn1ccc2ccc(N3Cc4cccc(Cl)c4C3=O)cc21)N1CCC2(CCC(N3CCC3)CC2)CC1` [Compound G-21, 2-(1-(2-(9-(Azetidin-1-yl)-3-azaspiro[5.5]undecan-3-yl)-2-oxoethyl)-1H-indol-6-yl)-7-chloroisoindolin-1-one]: 99%; for `O=C(Cn1ccc2ccc(N3CCn4ccc(Cl)c4C3=O)cc21)N1CCC2(CC1)CCN(c1ccncc1)CC2` [Compound G-33, 8-Chloro-2-[1-[2-oxo-2-(9-pyridin-4-yl-3,9-diazaspiro[5.5]undecan-3-yl)-ethyl]-1H-indol-6-yl]-3,4-dihydro-2H-pyrrolo[1,2-a]pyrazin-1-one]: 93%.
As to `COc1cc(C)c(S(=O)(=O)Nc2ccc3ccn(CC(=O)N4CCC(N5CCN(C)CC5)CC4)c3c2)c(C)c1` [G_CC-2, 4-Methoxy-2,6-dimethyl-N-[1-[2-[4-(4-methyl-piperazin-1-yl)-piperidin-1-yl]-2-oxo-ethyl]-1H-indol-6-yl]-benzenesulfonic acid amide], the inhibition at 10 µM amounted to 46%.
For `O=C(Cn1ccc2ccc(N3Cc4cccc(Cl)c4C3=O)cc21)N1CCC2(CC1)CCN(c1ccncc1)CC2` [Compound G-08, 7-Chloro-2-[1-[2-oxo-2-(9-pyridin-4-yl-3,9-diazaspiro[5.5]undecan-3-yl)-ethyl]-1H-indol-6-yl]-2,3-dihydro-isoindol-1-one] the value was 98%; for `COc1cc(C)c(S(=O)(=O)Nc2cccc3ccn(CC(=O)N4CCC5(CC4)C(=O)NCN5c4ccccc4)c23)c(C)c1` [Compound G-04, 4-Methoxy-2,6-dimethyl-N-[1-[2-oxo-2-(1-oxo-4-phenyl-2,4,8-triazaspiro[4.5]decan-8-yl)-ethyl]-1H-indol-7-yl]-benzenesulfonic acid amide], 68%.
The same measure for `O=C(Cn1ccc2ccc(N3Cc4cccc(Cl)c4C3=O)cc21)N1CCC2(CCC(Oc3ccncc3)CC2)CC1` [Compound G-19, 7-Chloro-2-(1-(2-oxo-2-(9-(pyridin-4-yloxy)-3-azaspiro[5.5]undecan-3-yl)ethyl)-1H-indol-6-yl)isoindolin-1-one]: 97%; for `O=C(Cn1ccc2ccc(N3Cc4cccc(Cl)c4C3=O)cc21)N1CCC2(CCC(N3CC(F)(F)C3)CC2)CC1` [Compound G-20, 7-Chloro-2-(1-(2-(9-(3,3-difluoroazetidin-1-yl)-3-azaspiro[5.5]undecan-3-yl)-2-oxoethyl)-1H-indol-6-yl)isoindolin-1-one]: 43%; for `COc1cc(C)c(S(=O)(=O)Nc2cccc3ccn(CC(=O)N4CCC5(CCC(N6CCC6)CC5)CC4)c23)c(C)c1` [Compound G-18, N-(1-(2-(9-(azetidin-1-yl)-3-azaspiro[5.5]undecan-3-yl)-2-oxoethyl)-1H-indol-7-yl)-4-methoxy-2,6-dimethylbenzenesulfonic acid amide]: 99%.
For the compound `COc1cc(C)c(S(=O)(=O)Nc2ccc3ccn(CC(=O)N4CCC(CCN5CCCC5)CC4)c3c2)c(C)c1` [Compound G-01, 4-Methoxy-2,6-dimethyl-N-[1-[2-oxo-2-[4-(2-pyrrolidin-1-yl-ethyl)-piperidin-1-yl]-ethyl]-1H-indol-6-yl]-benzenesulfonic acid amide], the inhibition at 10 µM stood at 98%.
